Measurements as given in ChEMBL document CHEMBL3301361, “Experimental in vitro DMPK and physicochemical data on a set of publicly disclosed compounds”.
Converted amounts (≈) assume the structure as drawn.

Key:
[1] = in vitro; settings: human, hepatocytes
[2] = physchem; settings: octan-1-ol/water
[3] = physchem; settings: pH 7.4 buffer
[4] = in vitro; settings: human, plasma
[5] = in vitro; settings: human, liver microsomes

Row | SMILES | hepatocyte CLint [1] | also measured
1 | O=C(O)CC[C@@H](Cc1ccc(OCc2ccccc2)cc1)NC(=O)CCCCCCc1ccccc1 | 17.4 µL/min/1e6 cells | –
2 | COCCOc1nc(N)c2[nH]c(=O)n(Cc3cccc(CC(=O)OC)c3)c2n1 | 125 µL/min/1e6 cells | logD ([2]; pH 7.4, LogD7.4): 1.86; solubility thermodynamic [3]: 21.9 µM (≈ 8.48 µg/mL)
3 | CNc1ncnc2c(CNc3cc(NC(=O)c4ccc5c(c4)OCCO5)ccc3C)cccc12 | 41.7 µL/min/1e6 cells | logD ([2]; pH 7.4, LogD7.4): 4; solubility thermodynamic [3]: 9.3 µM (≈ 4.24 µg/mL)
4 | Cc1ccc(-n2c(C)cc(/C=C3\SC(=O)NC3=O)c2C)cc1 | 17.8 µL/min/1e6 cells | fraction unbound at 5 h ([4]; PPB): 0.0016
5 | N=c1c(S(=O)(=O)c2ccc(Cl)cc2)cc2c(=O)n3ccccc3nc2n1C1CCCC1 | 35.5 µL/min/1e6 cells | fraction unbound at 5 h ([4]; PPB): 0.5
6 | Clc1ccc(Cn2c(-c3nn[nH]n3)cc3ccccc32)cc1Cl | 12.9 µL/min/1e6 cells | –
7 | Nc1c(-c2ccccc2)nc(Cl)nc1-c1ccccc1 | 46.8 µL/min/1e6 cells | –
8 | O=C(O)C1CSC(c2ccccc2Cl)N1C(=O)c1ccc(Cl)cc1 (stereo not given) | 15.5 µL/min/1e6 cells | –
9 | Cc1cc(C)nc(Nc2cccc(C(F)(F)F)c2)n1 | 36.3 µL/min/1e6 cells | –
10 | Nc1nc(-c2ccc(Cl)c(Cl)c2)c(-c2ccncc2)s1 | 19.1 µL/min/1e6 cells | fraction unbound at 5 h ([4]; PPB): 0.0074
11 | O=C(CN1CCOCC1)Nc1ccc(-c2cccc3c(=O)cc(N4CCOCC4)oc23)cc1O | 18.6 µL/min/1e6 cells | logD ([2]; pH 7.4, LogD7.4): 2.4; solubility thermodynamic [3]: 7.2 µM (≈ 3.35 µg/mL)
12 | CCOc1cc(-c2cccc3c(=O)cc(N4CCOCC4)oc23)ccc1NC(=O)CN1CCOCC1 | 51.3 µL/min/1e6 cells | logD ([2]; pH 7.4, LogD7.4): 2.8; solubility thermodynamic [3]: 1.4 µM (≈ 0.691 µg/mL)
13 | CC(C)Oc1cc(-c2cccc3c(=O)cc(N4CCOCC4)oc23)ccc1NC(=O)CN1CCOCC1 | 87.1 µL/min/1e6 cells | logD ([2]; pH 7.4, LogD7.4): 3; solubility thermodynamic [3]: 4 µM (≈ 2.03 µg/mL)
14 | CC(C)COc1cc(-c2cccc3c(=O)cc(N4CCOCC4)oc23)ccc1NC(=O)CN1CCOCC1 | > 150 µL/min/1e6 cells | logD ([2]; pH 7.4, LogD7.4): 3.8; solubility thermodynamic [3]: 3.5 µM (≈ 1.83 µg/mL)
15 | C=CCOc1cc(-c2cccc3c(=O)cc(N4CCOCC4)oc23)ccc1NC(=O)CN1CCOCC1 | 83.2 µL/min/1e6 cells | logD ([2]; pH 7.4, LogD7.4): 3; solubility thermodynamic [3]: 4.7 µM (≈ 2.38 µg/mL)
16 | COCCOc1cc(-c2cccc3c(=O)cc(N4CCOCC4)oc23)ccc1NC(=O)CN1CCOCC1 | 43.6 µL/min/1e6 cells | –
17 | COc1cc(C2CCN(C(C)=O)CC2)ccc1Nc1ncc(Cl)c(-c2cnc3ccccn23)n1 | 24 µL/min/1e6 cells | solubility thermodynamic [3]: 2.2 µM (≈ 1.05 µg/mL)
18 | COc1cc(C(CO)CO)ccc1Nc1ncc(Cl)c(-c2cnc3ccccn23)n1 | 19.9 µL/min/1e6 cells | logD ([2]; pH 7.4, LogD7.4): 3.1; solubility thermodynamic [3]: 6.8 µM (≈ 2.9 µg/mL)
19 | COc1cc(N2CC3CNCC(C2)O3)ccc1Nc1ncc(Cl)c(-c2cnc3ccccn23)n1 | 13.8 µL/min/1e6 cells | solubility thermodynamic [3]: 25.1 µM (≈ 12 µg/mL)
20 | COc1cc(N2CCN(C(=O)[C@@H](C)O)CC2)ccc1Nc1ncc(Cl)c(-c2cnc3ccccn23)n1 | 12.6 µL/min/1e6 cells | –
21 | O=C(O)C1(c2ccc(-c3ccc(Cl)c(Cl)c3)c(F)c2)CC1 | 38.9 µL/min/1e6 cells | –
22 | CC(C)(C)S(=O)(=O)N[C@H]1CC[C@H](C(=O)Nc2ccc(C(F)(F)F)cn2)CC1 | 5.75 µL/min/1e6 cells | fraction unbound at 5 h ([4]; PPB): 0.0409
23 | CCN(C(=O)c1ccc(-c2ccc(Cl)cc2)o1)c1ccc(N2CCNCC2)cc1 | < 3 µL/min/1e6 cells | logD ([2]; pH 7.4, LogD7.4): 3.3

Row | SMILES | hepatocyte CLint [1] | also measured
24 | NC(=O)c1ccn2c(-c3ccccc3)c(-c3ccc(C4(N)CCC4)cc3)nc2c1 | 3.72 µL/min/1e6 cells | solubility thermodynamic [3]: 112 µM (≈ 42.9 µg/mL)
25 | NC1(c2ccc(-c3ncc4cccn4c3-c3ccccc3)cc2)CCC1 | < 3 µL/min/1e6 cells | –
26 | NC1(c2ccc(-c3ncc4cnccc4c3-c3ccccc3)cc2)CCC1 | > 150 µL/min/1e6 cells | –
27 | NC1(c2ccc(-c3ncc4cccnc4c3-c3ccccc3)cc2)CCC1 | 19.5 µL/min/1e6 cells | –
28 | NC1(c2ccc(-c3c(-c4ccccc4)ccc4ccnn34)cc2)CCC1 | 10.2 µL/min/1e6 cells | –
29 | NC1(c2ccc(-c3c(-c4ccccc4)ccn4ncnc34)cc2)CCC1 | < 3 µL/min/1e6 cells | –
30 | O=S(=O)(Nc1ccc(C(F)(F)F)cc1)c1ccc2sc(CO)nc2c1 | 15.5 µL/min/1e6 cells | fraction unbound at 5 h ([4]; PPB): 0.0027
31 | Cc1ccc(-c2cccc(-c3nn[nH]n3)c2)cc1 | 52.5 µL/min/1e6 cells | –
32 | N#Cc1cccc(-c2cccc(C(=O)O)c2)c1 | 8.13 µL/min/1e6 cells | logD ([2]; pH 7.4, LogD7.4): 0.3
33 | O=C1NC(=O)C(=CC=Cc2ccccc2)S1 | 10.5 µL/min/1e6 cells | –
34 | O=C(NCc1ccc(OC(F)(F)F)cc1)C1c2ccccc2C(=O)N1CC1CC(F)(F)C1 (stereo not given) | 10 µL/min/1e6 cells | logD ([2]; pH 7.4, LogD7.4): 3.9
35 | Nc1ncc(-c2ccc(S(=O)(=O)N3CCCC3)cc2)nc1C(=O)Nc1cccnc1 | < 3 µL/min/1e6 cells | –
36 | CS(=O)(=O)C1(c2cc(N3CCOCC3)nc(-c3cccc4[nH]ncc34)n2)CC1 | < 3 µL/min/1e6 cells | –
37 | Cc1c(Cl)cccc1S(=O)(=O)N1CCC[C@H](C(=O)NC2CCCCC2)C1 | 18.6 µL/min/1e6 cells | –
38 | C[C@H]1COCCN1c1nc(N2CCOC[C@@H]2C)c2ccc(-c3ccc4nc[nH]c(=O)c4c3)nc2n1 | > 150 µL/min/1e6 cells | –
39 | C[C@H]1COCCN1c1nc(N2CCOC[C@@H]2C)c2ccc(-c3cccc(C(=O)NCCO)c3)nc2n1 | 10 µL/min/1e6 cells | logD ([2]; pH 7.4, LogD7.4): 2.49
40 | CC(C)C[C@H](CO)Nc1nc(SCc2ccccc2)nc2[nH]c(=O)sc12 | 13.5 µL/min/1e6 cells | logD ([2]; pH 7.4, LogD7.4): 4.2
41 | CC(C)C[C@H](CO)Nc1nc(SCc2ccccc2)nc2nc(N)sc12 | 20.4 µL/min/1e6 cells | logD ([2]; pH 7.4, LogD7.4): 4.2
42 | Cc1ccc(-c2cc(C(F)(F)F)nn2-c2ccc(S(C)(=O)=O)cc2)cc1 | 17.4 µL/min/1e6 cells | –
43 | NS(=O)(=O)c1ccc(-n2nc(C(F)(F)F)cc2-c2ccc(C(F)(F)F)cc2)cc1 | 18.2 µL/min/1e6 cells | –
44 | COc1ccc(/C=C2\NC(=O)NC2=O)cc1 | 39.8 µL/min/1e6 cells | –
45 | CC[C@H](CO)Nc1nc(SCc2cccc(F)c2F)nc2nc(N)sc12 | 5.16 µL/min/1e6 cells | fraction unbound at 5 h ([4]; PPB): 0.0149; microsomal CLint [5]: 62 µL/min/mg
46 | CC(C)(CO)Nc1nc(SCc2cccc(F)c2F)nc2nc(N)sc12 | 5.88 µL/min/1e6 cells | logD ([2]; pH 7.4, LogD7.4): 3.37

Row | SMILES | hepatocyte CLint [1] | also measured
47 | Clc1ccc(COc2ccc(Br)cc2CN2CCOCC2)cc1 | 55 µL/min/1e6 cells | –
48 | Cc1ccc(-c2cc(C(F)(F)F)nn2-c2ccc(C(=O)O)cc2)cc1 | 10.7 µL/min/1e6 cells | –
49 | Cc1ccc(-c2cc(C(F)(F)F)nn2-c2ccc([S+](C)[O-])cc2)cc1 (stereo not given) | 14.8 µL/min/1e6 cells | –
50 | CNC(=O)c1ccccc1Nc1nc(Nc2ccc(N3CCOCC3)cc2OC)ncc1Cl | 16.2 µL/min/1e6 cells | solubility thermodynamic [3]: 0.4 µM (≈ 0.188 µg/mL)
51 | COc1ccccc1SC[C@@H](C)CN[C@@H]1COc2ccccc2SC1 | 51.3 µL/min/1e6 cells | –
52 | Cc1ccc2nc(C(=O)O)[nH]c2c1 | 9.77 µL/min/1e6 cells | –
53 | C[C@]12CC[C@H](O)CC1=CCC1C2CC[C@]2(C)C(n3cnc4ccccc43)=CCC12 (stereo not given in full) | 34.7 µL/min/1e6 cells | –
54 | Nc1ccc2c(c1)Cc1cc(N)ccc1-2 | 61.7 µL/min/1e6 cells | –
55 | C[C@]12CC[C@H](O)CC1=CC[C@@H]1[C@@H]2CC[C@]2(C)C(c3cccnc3)=CC[C@@H]12 [ABIRATERONE] | 55 µL/min/1e6 cells | –
56 | Cc1c(N(C)C)c(=O)n(-c2ccccc2)n1C [AMINOPYRINE] | 3.47 µL/min/1e6 cells | –
57 | O=C1CN=C(c2ccccc2Cl)c2cc([N+](=O)[O-])ccc2N1 [CLONAZEPAM] | 3.72 µL/min/1e6 cells | logD ([2]; pH 7.4): 3.72; solubility thermodynamic [3]: 240 µM (≈ 75.7 µg/mL)
58 | N=C(N)N1CCc2ccccc2C1 [DEBRISOQUIN] | 3.98 µL/min/1e6 cells | logD ([2]; pH 7.4, LogD7.4): -1.01
59 | O=C1Nc2ccc(Cl)cc2[C@@](C#CC2CC2)(C(F)(F)F)O1 [EFAVIRENZ] | 8.51 µL/min/1e6 cells | –
60 | Cn1cc(C2=C(c3cn(C4CCN(Cc5ccccn5)CC4)c4ccccc34)C(=O)NC2=O)c2ccccc21 [ENZASTAURIN] | 6 µL/min/1e6 cells | solubility thermodynamic [3]: 0.8 µM (≈ 0.412 µg/mL); fraction unbound at 5 h [4]: 0.0017
61 | CCOc1ccc2nc3ccc(=O)cc-3oc2c1 [ETHOXYRESORUFIN] | > 150 µL/min/1e6 cells | –
62 | CCC1=C(C)CN(C(=O)NCCc2ccc(S(=O)(=O)NC(=O)N[C@H]3CC[C@H](C)CC3)cc2)C1=O [GLIMEPIRIDE] | 23.2 µL/min/1e6 cells | logD ([2]; pH 7.4, LogD7.4): 1.73
63 | N#Cc1ccc(C(c2ccc(C#N)cc2)n2cncn2)cc1 [LETROZOLE] | < 3 µL/min/1e6 cells | logD ([2]; pH 7.4, LogD7.4): 1.7; fraction unbound at 5 h ([4]; PPB): 0.483
64 | CC(C)c1cc(C(=O)N2Cc3ccc(CN4CCN(C)CC4)cc3C2)c(O)cc1O [ONALESPIB] | 23.4 µL/min/1e6 cells | logD ([2]; pH 7.4, LogD7.4): 2.5; solubility thermodynamic [3]: 93.3 µM (≈ 38.2 µg/mL)
65 | C[C@]12CC[C@H]3[C@@H](CCC4=CC(=O)CC[C@@]43C)[C@@H]1CC[C@@H]2O [TESTOSTERONE] | > 150 µL/min/1e6 cells | –
66 | O=c1ccc2ccc(O)cc2o1 [UMBELLIFERONE] | 123 µL/min/1e6 cells | –
67 | CCCS(=O)(=O)Nc1ccc(F)c(C(=O)c2c[nH]c3ncc(-c4ccc(Cl)cc4)cc23)c1F [VEMURAFENIB] | 6.61 µL/min/1e6 cells | –
68 | CC(c1cc2ccccc2s1)N(O)C(N)=O (stereo not given) [ZILEUTON] | 7.76 µL/min/1e6 cells | logD ([2]; pH 7.4, LogD7.4): 2.05; solubility thermodynamic [3]: 436 µM (≈ 103 µg/mL)
69 | Cc1cc(CC(=O)O)n(C)c1C(=O)c1ccc(Cl)cc1 [ZOMEPIRAC] | < 3 µL/min/1e6 cells | –
